Source: EP2229935A1, “Peptide derivatives or pharmaceutically acceptable salts thereof, method for producing the same, use of said derivatives and pharmaceutical composition” (Nebolsin, Vladimir Evgenievich, priority 1997, dated 1999)
Marks after values point to notes of the source that are not given here.

What was measured:
mongrel male mice = experiment: Passive cutaneous anaphylaxis reaction; type: in vivo; conditions: PCA, oral 3 days
Method: Experiments were carried out on mongrel male mice with initial body mass 22-24 g. Each group included 10 animals. Sensibilization of animals was accomplished by intradermal injection of 20-30 µl of the serum of mice obtained from preliminaryly immunized animals comprising reagent antibodies against chicken ovalbumin (OVA). […] In 48 hours after sensibilzation an anaphylaxis-provoking OVA dose (1 mg and 0,2 ml Evans blue in 0.2 ml normal saline) were intravenously injected to mice. Passive cutaneous anaphylaxis reaction intensity (PCA) was determined in 30 minutes by the size (area) of a blue spot on the internal skin surface in the site of reagent anibodies' administration. Spot size was measured in two mutually perpendicular directions and the result was expressed in mm^2.

Wistar male rats = experiment: Blood glucose level in intact rats; type: in vivo; conditions: for Blood glucose level (mg/dl) 2 hours after / Blood glucose level (mg/dl) 5 hours after: deprived of food; for Blood glucose level (mg/dl) 2 hours before: intragastral four days
Method: Experiments were carried out on Wistar male rats weighing 250-300 g. Experimental diabetes was induced with single intravenous injection of streptozotocine (the Synthez cooperative enterprise at the IMBG of the Academy of Sciences of Ukraine) at a dose 42 mg/kg to rats which were preliminarily fasting for 24 hours with access to food immediately following injection. Rats were selected for experiment 2 weeks after diabetes induction with glycemia 120-180 mg/dl. Each group included 12 animals.
The compounds were intragastrally administered to intact animals and to rats with streptozotocine diabetes for four days at daily doses 50 µg/kg and 500 µg/kg in water solution at a rate of 1 ml per 200 g of body mass. Intact animals were given the compounds III and XLIV, and rats with induced diabetes were given the compound XLIV. Check blood glucose level determination was done at the day of experiment, then animals were administered the test compounds and were deprived of food. The control animals received a respective water volume. Effect was estimated by change in blood glucose level in 2 and 5 hours. Then animals received forage and 24 hours after the last drug administration blood was again sampled for examination. 0.1 ml of blood were collected from the tail vein. Glucose level was determined using the o-toluidine method.
Glucose level was calculated in mg/dl using standard glucose solutions. Then the degree of change in glucose level in relation to the initial level was determined for each animal with its expression in percent from the initial level. Final calculation was performed for each group of animals. Each group included 10 animals.

[1] = tested on: Lewis pulmonary carcinoma (LLC); experiment: LLC metastasizing with surgical resection of the primary tumor node, alone and with Cyclophosphane; type: in vivo, C57BL/6 female mice; conditions: day 29
Method: An important property of the compounds is their ability to manifest pharmacological activity on the model with resection of the primary tumor node and not to lower therapeutic efficacy of respective antitumor drugs. […] Surgical resection of the primary tumor node was performed by day 13 following tumor transplantation. The test anitumor compounds were administered according to two dosage regimens:
Dosage regimen 1 - animals were administered compound III from day 1 till day 13 of experiment at a dose 500 µg/kg (group 1); Cyclophosphane was administered intraperitoneally two times before operation with 96 hour interval at a dose 100 µg/kg (group 2); combined administration of compound III and Cyclophosphane was similar to administration of substances in groups 1 and 2 (group 3). Number of metastases was calculated by day 29 of experiment;
Dosage regimen 2 - animals were administered compound III from day 14 of experiment (commencement of administration 24 hours post operation) till day 28 (group 4); Cyclophosphane was administered twice post operation with 96 hour interval at a dose 100 µg/kg (group 5); combined administration of compound III and Cyclophosphane similar to administration of substances in groups 4 and 5 (group 6). Antimetastatic efficacy of the drugs was considered by day 29 of experiment.

peritoneal macrophages = experiment: Activity of peritoneal macrophages (NBT reduction test); type: in vivo, mongrel white male mice; conditions: for portion of active macrophages: mice, oral three days at 50 and 500 µg/kg
Method: Change in the activity of peritoneal macrophages (PM) as effected by the test compounds was studied.
Experiments were carried out on mongrel white male mice with initial body mass 20-22 g. Each group included 10 animals. Compounds III, VI, XLIV were dissolved in normal saline (NS). The test compounds were administered to animals orally for three days at doses 50 and 500 µg/kg. Animals of the control group were given equal volume of NS. Mice were sacrified 20 hours after the last compound administration, peritoneal cavity was washed with 1.5 ml Henks solution comprising 5 U/ml heparine. 0.1 ml of wash solution were incubated for 30 minutes at 37°C with 0.1 ml 0.2% nitroblue tetrasolium (NBT) solution, then smears were prepared. Nuclei were additionaly stained with o.1% neutral red solution. Results were expressed in percent of active cells [Klimov V.V., Kolovkina T.V. Nitroblue tetrasolium reduction test stimulated with pyrogenal. Laborotornoye delo (Laboratory matter) (1982), No 10, pp. 624-625]. […]

[2] = regimen 1, prior to operation: day 1 till day 13, 500 µg/kg
[3] = regimen 2, post operation: day 14 till day 28
[4] = score 0 (no formazane inclusions, inactive PM), 50 µg/kg orally for three days
[5] = score 0 (no formazane inclusions, inactive PM), 500 µg/kg orally for three days
[6] = score 1 (single formazane inclusions), 50 µg/kg orally for three days
[7] = score 1 (single formazane inclusions), 500 µg/kg orally for three days
[8] = score 2 (inclusions fill up to 1/3 of PM cytoplasm), 50 µg/kg orally for three days
[9] = score 2 (inclusions fill up to 1/3 of PM cytoplasm), 500 µg/kg orally for three days
[10] = score 3 (inclusions fill up to 1/2 of PM cytoplasm), 50 µg/kg orally for three days
[11] = score 3 (inclusions fill up to 1/2 of PM cytoplasm), 500 µg/kg orally for three days

Row | Molecule | Percent of the reaction inhibition (mongrel male mice; 50 µg/kg) [%] | Reaction intensity, mm^2 (mongrel male mice; 50 µg/kg) | Blood glucose level (mg/dl) 24 hours after (Wistar male rats; 50 µg/kg) [mg/dL] | Blood glucose level (mg/dl) 24 hours after (Wistar male rats; 500 µg/kg) [mg/dL] | Blood glucose level (mg/dl) 2 hours after (Wistar male rats; 50 µg/kg) [mg/dL] | Blood glucose level (mg/dl) 5 hours after (Wistar male rats; 50 µg/kg) [mg/dL] | Blood glucose level (mg/dl) 2 hours after (Wistar male rats; 500 µg/kg) | Blood glucose level (mg/dl) 5 hours after (Wistar male rats; 500 µg/kg) | Blood glucose level (mg/dl) 2 hours before (Wistar male rats; 50 µg/kg) [mg/dL] | Blood glucose level (mg/dl) 2 hours before (Wistar male rats; 500 µg/kg) [mg/dL] | portion of active macrophages (peritoneal macrophages) | Activity of macrophages, percent (peritoneal macrophages; [4]) [%] | Activity of macrophages, percent (peritoneal macrophages; [5]) [%] | Activity of macrophages, percent (peritoneal macrophages; [6]) [%] | Activity of macrophages, percent (peritoneal macrophages; [7]) [%] | Activity of macrophages, percent (peritoneal macrophages; [8]) [%] | Activity of macrophages, percent (peritoneal macrophages; [9]) [%] | Activity of macrophages, percent (peritoneal macrophages; [10]) [%] | Activity of macrophages, percent (peritoneal macrophages; [11]) [%] | further results
1 | O=C(O)CCCC(=O)NCCc1c[nH]cn1 [compound III, N-GLUTARYLHISTAMINE] | 42 | 51.6 ± 17.1*^2 mm^2 | 66.5 ± 3.3 | 73.1 ± 3.4 | 58.5 ± 5.9 | 70.8 ± 5.5 | 69.9 ± 2.8*^2 mg/dl | 72.6 ± 1.5*^2 mg/dl | 84.2 ± 6.1 | 71.3 ± 4.0 | pronounced in study of the both substance doses | 11.6 ± 2.8 | 12.8 ± 1.3 | 27.5 ± 2.5 | 31.3 ± 2.3 | 44.6 ± 1.9 | 46.0 ± 2.6 | 15.8 ± 3.3 | 10.9 ± 2.1 | Percent of the reaction inhibition (mongrel male mice; 150 µg/kg): 34.3%; Reaction intensity, mm^2 (mongrel male mice; 150 µg/kg): 53.7 ± 10.1*^1 mm^2; Percent of the reaction inhibition (mongrel male mice; 500 µg/kg): 30.0%; Reaction intensity, mm^2 (mongrel male mice; 500 µg/kg): 57.2 ± 12.6*^1 mm^2; Mean number of metastases [1, 2]: 32.0 ± 11.8; Metastasizing inhibition percent [1, 2]: 8.0%; Metastasizing rate (%) [1, 2]: 100%; Mean number of metastases [1, 3]: 28.6 ± 8.5; Metastasizing inhibition percent [1, 3]: 22.9%; Metastasizing rate (%) [1, 3]: 100%
2 | γ-L-glutamylhistamine [compound XLIV] | 50 | 44.6 ± 11.6 mm^2 | 79.9 ± 5.2 | 83.7 ± 4.0 | 60.8 ± 4.0 | 64.0 ± 3.1 | 64.8 ± 4.2 mg/dL | 65.9 ± 3.9 mg/dL | 81.2 ± 3.8 | 80.8 ± 2.7 | more pronounced at a dose 500 µg/kg | 23.9 ± 4.4 | 17.4 ± 2.5 | 37.3 ± 3.4 | 37.3 ± 3.9 | 34.9 ± 5.9 | 35.8 ± 4.4 | 5.4 ± 2.0 | 9.4 ± 2.9 | –
